Test results reported in patent publication US12311033B2, “Lipid nanoparticle formulations and compositions” (CAPSTAN THERAPEUTICS, INC., priority 2023, dated 2025).

Assays:
[1] = Time course of ionizable cationic lipid (LC-MS) and mRNA (digital PCR) in plasma, spleen, liver; assay type: in vivo; conditions: mice; for plasma levels of lipid at 7 days: CD8-targeted tLNP F9 (CICL1) or BF1 (ALC-0315)
Method: To obtain more detailed data a similar experiment was conducted in mice where it was possible to obtain a time course of disappearance of the ionizable cationic lipid and the encapsulated mRNA as well. Mice were intravenously administered 2 mg/kg tLNP of composition BF1 (comprising ALC-0315) or F9 (comprising CICL1) targeted to mouse CD8 and encapsulating an anti-human CD19 CAR, and monitored through 7 days. At each timepoint, 3 mice were sacrificed, and liver, spleen, and plasma were processed for LC-MS-based detection of lipid concentration and digital PCR detection of the mRNA. In plasma, mRNA level was normalized to a known amount of mRNA spiked in a control. In spleen and liver mRNA level was normalized to mRNA for the housekeeping gene GAPDH.

[2] = Ionizable cationic lipid in plasma, liver and spleen 24 hours after tLNP, LC/MS/MS; assay type: in vivo, cynomolgus macaques
Method: Samples were taken from cynomolgus macaques that had been intravenously administered either BF1 or F5 tLNPs (two each) at a dosage of 3 mg mRNA/kg in the preceding example. The tLNPs were conjugated to anti-CD5 mentioned in Example 2 as the targeting moiety. 24 hours after administration the animals were sacrificed and plasma, liver, and spleen tissue collected from two animals in each group and assessed by mass spectrometry for presence of these ionizable cationic lipids in order to assess biodegradability and biodistribution of these ionizable cationic lipids.
Briefly, plasma was stabilized for mass spectrometry by addition of 10 μL of formic acid per mL of K2EDTA plasma. Spleen and liver tissue were homogenized in 19 parts of homogenization buffer (50:40:10 0.1% formic acid in 1:1 methanol: acetone/10 mM ammonium formate with 0.2% formic acid/dimethylformamide (DMF)) to 1 part tissue (v/w) using a Geno/Grinder® (SPEX® SamplePrep) set to two minutes at 1500 rpms.
Calibration curves and quality control samples were prepared by spiking control matrix (plasma or homogenate) with CICL1 or ALC-0315 in DMF. The extraction was performed on wet ice by adding 300 μL of crashing solvent (0.1% formic acid in 1:1 methanol: acetonitrile) to 25 μL of sample to which 50 μL of internal standard was added (1:1 isopropyl alcohol: water). The extracts were mixed for four minutes at 1500 rpms and then centrifuged at 3000×g for ten minutes. 200 μL of supernatant was transferred to a clean 96 well plate for LC/MS/MS analysis.
Chromatography was performed on a Waters XBridge BEH C8 column (130 Å, 2.5 μm, 2.1×30 mm) using the following gradient. Mobile phase A (10 mM ammonium format in water with 0.2% formic acid) was held at 20% for 0.3 minutes before being reduced to 5% over 1.2 minutes. This condition was held for one minute before being returned to 80% B (0.1% formic acid in 1:1 methanol: acetonitrile) in 0.1 minutes. The column was then held at 80% B for 1.4 minutes. LC flow rate was held at 0.5 mL/min and the autosampler held at 2-8° C. The mass spectrum was obtained with a triple quadrupole apparatus using atmospheric pressure ionization (Sciex).
Quantitation was performed using a 1/X2 quadratic regression using the peak area for transition 1013.6→968.4 (CICL1) or 766.6→748.4 (ALC-0315) over peak area of transition 1040.6→995.4 of the internal standard.

[3] = molecular target: signal regulatory protein a (SIRPα) (Homo sapiens, UniProt P78324); conditions: reported in Rodriguez et al., 2013; cited from earlier work
Sequence of signal regulatory protein a (SIRPα) (P78324 31-504): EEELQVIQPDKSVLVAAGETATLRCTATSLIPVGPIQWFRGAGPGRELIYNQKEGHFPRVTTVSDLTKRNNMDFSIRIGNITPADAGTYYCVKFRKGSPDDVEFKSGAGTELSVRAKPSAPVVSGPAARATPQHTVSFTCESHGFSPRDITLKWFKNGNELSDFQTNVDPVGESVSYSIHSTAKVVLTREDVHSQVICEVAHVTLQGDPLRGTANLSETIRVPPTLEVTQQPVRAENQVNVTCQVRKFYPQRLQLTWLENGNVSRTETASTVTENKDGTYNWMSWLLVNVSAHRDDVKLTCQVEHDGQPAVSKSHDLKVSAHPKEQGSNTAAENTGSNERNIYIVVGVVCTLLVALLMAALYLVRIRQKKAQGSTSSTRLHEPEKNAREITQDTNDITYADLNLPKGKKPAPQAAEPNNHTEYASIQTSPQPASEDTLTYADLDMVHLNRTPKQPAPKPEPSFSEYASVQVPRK

[4] = 24 hours after BF1 tLNP, 3 mg mRNA/kg

## CCCCCCCCC(=O)OCC(COC(=O)CCCCCCCC)CC(=O)OCCN(CCOC(=O)CC(COC(=O)CCCCCCCC)COC(=O)CCCCCCCC)C(=O)OCCN(C)C [CICL1]
[1]; 2 mg/kg F9 tLNP
  time after administration by which lipid levels were falling in the liver: ≤ 2 h
  time after administration by which lipid levels were falling in the spleen: ≤ 1 h
[1]; 2 mg/kg i.v.
  plasma levels of lipid at 7 days: returned to baseline
[2]; 24 hours after F5 tLNP, 3 mg mRNA/kg
  concentrations in blood, liver, and spleen relative to each other: ≤ 2 fold
[2]; 24 hours after F5 tLNP, 3 mg mRNA/kg i.v.
  amount of lipid present in blood, liver, and spleen: only very small amounts
[2]; 24 hours, 3 mg mRNA/kg
  liver concentration, fold less than for ALC-0315: approximately 127 fold
  spleen concentration, fold less than for ALC-0315: ~35 fold
[2]; clearance data, at least at the initial step
  biodegradability: much more biodegradable than ALC-0315

## CCCCCCCCC(CCCCCC)C(=O)OCCCCCCN(CCCCO)CCCCCCOC(=O)C(CCCCCC)CCCCCCCC (centres unmarked) [ALC-0315, [(4-Hydroxybutyl)azanediyl]di(hexane-6,1-diyl)bis(2-hexyldecanoate), reference compound]
[1]; 2 mg/kg i.v.
  plasma levels of lipid at 7 days: still detected
[1]; 2 mg/kg i.v., through 7 days
  lipid levels in spleen and liver: remained almost unchanged throughout the 7 days
[2]; [4]
  concentration in liver, fold greater (reference not given): approximately 14 fold
  concentration in spleen, fold greater (reference not given): ~11 fold
[2]; 24 hours after BF1 versus F5 tLNP, 3 mg mRNA/kg
  concentration in blood, fold greater than CICL1: about 6 fold

## NYTCEVTELSREGKTVIELK (SEQ ID NO: 3) [CD47 peptide]
[3]
  binding affinity to SIRPα, fold stronger than full-length CD47 protein: 10 fold
